{"source": "patent US10888549B2", "about": "“Pharmaceutical agents targeting cancer stem cells” (THE JOHNS HOPKINS UNIVERSITY, priority 2016, dated 2021)", "key": {"[1]": {"assay": "Body weight of treated mice", "type": "in vivo", "conditions": "compared with control", "protocol": "For celecoxib and/or VP treatment, celecoxib (5 mg/kg) was administered via intraperitoneal (i.p.) injection once a day (17), and VP (50 mg/kg) was administered via i.p. every other day (18). EP4 antagonist ONO-AE3-208 (10 mg/kg) was administered via i.p. once a day (19). Control was applied with same volume (100 μL per injection) of 10% dimethyl sulphoxide in […] (Sigma-Aldrich). For GEM and CDDP (GC) treatment (i.p.), CDDP (6 mg/kg) was only applied after the first GEM (60 mg/kg) treatment on day 2, followed by three consecutive treatments of GEM on day 5, 8 and 11 (17). The next cycle was started on day 18, and the treatment was continued until tumor reached 2 cm in diameter. For erlotinib treatment, the mice were treated once a day, 6 days per week, by oral gavage with erlotinib (100 mg/kg) or control (PBS containing 0.5% methyl cellulose (Sigma-Aldrich) and 0.1% TWEEN 80) (20). Tumor size was measured at least every three days. […] To establish xenograft model with acquired resistance to erlotinib, erlotinib sensitive 5637 cells were injected subcutaneously into the both flanks of 4-5 week-old NSG mice, and the tumors were consecutively passaged from NSG mice treated with erlotinib and celecoxib until the development of refractory tumors. […]"}, "MIRLET7BHG promoter": {"system": "MIRLET7BHG promoter", "assay": "Bisulfite sequencing of let-7 host gene promoter", "type": "cell-based, human", "conditions": "bladder cancer cells", "protocol": "Cell pellets were digested with 1% sodium dodecyl sulfate and 50 μg/mL proteinase K (Roche, Nutley, USA) at 48° C. overnight. Isolation of genomic DNA from cell lines was performed with the phenol-chloroform extraction protocol followed by ethanol precipitation. Bisulfite treatment was conducted using an EpiTect Bisulfite Kit (QIAGEN, Valencia, USA), and was subsequently amplified via PCR using primers as shown in the following table. PCR products were purified using the QIAquick Gel Extraction kit (Qiagen), and sequenced by Genewiz DNA sequencing service (Genewiz, South Plainfield, USA). The data were analyzed using the Sequence Scanner v1.0 software (Life technologies). A methylation frequency of ≥50% of total CpG sites within the amplified region was considered “methylation-positive”. For demethylation, cells (1×10^6/T-75 flask) were treated with […] of the demethylating agent 5-Aza-dC (Sigma) dissolved in 50% acetic acid or were mock-treated with phosphate buffered saline (PBS) including the same amount of acetic acid every 24 hours for 5 days. When combined with the histone deacetylase inhibitor TSA (Sigma), 300 nmol/L TSA was added to the medium for the final 24 hours."}, "urothelial CSCs": {"system": "urothelial CSCs", "assay": "Sphere formation assay (CSC properties)", "type": "cell-based, human", "protocol": "Sphere formation was induced by culturing cells (2×10^4/well) in DMEM/Ham's F12 50/50 Mix (Mediatech) supplemented with B-27 (Life Technologies), 20 ng/mL FGF-basic (Peprotech), 20 ng/mL EGF (Peprotech). Cell culture was performed in ultra-low attachment 6 well plates (Corning, Lowell, USA) for 10 days. The medium was replaced every other day. Sphere formation was evaluated using the inverted phase-contrast microscope, and single sphere with a diameter larger than 100 μm was counted using NIS-Elements Microscope Imaging Software. To redifferentiate spheres, spheres were plated in standard growth medium with 10% FBS in dishes supporting cell attachment, and incubated for 7 days. For self-renewal assay, primary spheres were collected by gentle centrifugation (5 min at 400×g), dissociated with Stempro Accutase Cell Dissociation Reagent (Life Technologies), and mechanically disrupted with a pipette. The cell suspension was sieved through 40 μm cell strainer cap filter to achieve a single-cell suspension, and then equal numbers of alive cells were plated in ultralow attachment plates to generate the second spheres. Again, spheres were counted on day 14 and digested to generate the third Spheres. All the experiments were performed in triplicate and repeated at least three times."}}}
{"molecule": "Cc1ccc(-c2cc(C(F)(F)F)nn2-c2ccc(S(N)(=O)=O)cc2)cc1", "note": "[celecoxib, Celecoxib]", "values": [{"measurement": "body weight loss of mice", "setting": "[1]", "result": "did not observe body weight loss"}, {"measurement": "promoter methylation of the let-7 host gene", "setting": "MIRLET7BHG promoter", "result": "demethylated"}, {"measurement": "sphere formation", "setting": "urothelial CSCs; COX2 inhibitor added to erlotinib, basal-type cells, 72 hours", "result": "impaired"}, {"measurement": "sphere formation / sphere-forming ability", "setting": "urothelial CSCs; agent alone, bladder cancer cells", "result": "repressed"}]}
